Consider three compounds from patent US10092568B2, “CBP/Catenin antagonists for enhancing asymmetric division of somatic stem cells” (University of Southern California, priority 2010, dated 2018).

“Also recorded” adds a separate entry of the source.

The subject of data set [1] is human skin (surgical waste). The data set is described as follows: Ex vivo human skin assay, qRT-PCR. The class given is cell-based. The settings on record: 24 hrs; 5 uM ICG-001, 5 uM methylated ICG-001, 1 ug/ml RA. As for the experimental part:
Methods. Ex Vivo human skin assay culture conditions were based upon a paper by Varani J et al Experimental and Molecular Pathology, 2004.
Briefly, human skin (surgical waste from plastic surgery procedures) was obtained and the subcutaneous layer of fat was trimmed manually with a scalpel. The skin was then cut into small fragments about 2 mm square and placed in 6 well plates. 1 ml of keratinocyte culture medium (Gibco 10724-011) with 1% P/S (penstrep antibiotic) was added to each well. The epidermis, bathed in media was placed facing up. On the next day (overnight culture in the media above), the skin fragments were transferred to fresh wells that contained either 5 uM ICG-001, 5-uM methylated ICG-001 or 1 ug/ml of retinoic acid (RA). After 24 hrs, skin samples in culture were removed for RNA isolation and qRT-PCR analysis of genes of interest (e.g., elastin (a gene involved in skin appearance and pliability (e.g., wrinkling)) and aquaporin 1, which is involved with hydration.
For orientation: Quantitative PCR measures a nucleic acid by following its amplification.

The test system of data set [2] is hair-less mouse model. The data set is described as follows: Hair growth in a hair-less mouse model. In kind it is in vivo. As to the method:
The ability of CBP/β-catenin antagonist to stimulate hair growth in a hair-less mouse model was tested. In brief, the animals were treated with either petroleum jelly or Laura-8 for 16 days. In addition, skin samples from each animal were taken and examined for hair-follicle formulation.

For data set [3], the system named is skin injury. Nature of the data set: Skin injury repair in normal mice and hair-less mice models. The class given is in vivo, mouse. The settings on record: 500 μM in vaseline once a day for eight days, both animal models. As for the experimental part:
The ability of CBP/catenin (e.g., CBP/β-catenin) antagonist to accelerate injured skin repair in normal mice models (having full hair growth and normal fur) and hair-less mice models was tested. In brief, on day 0, the animals were subjected to skin injury in two spots on the back, hind end of each animal. Each skin injury spot was treated with 500 μM of either Vaseline (petrolatum) (vehicle) or Laura-8 in vaseline once a day for eight days.

For data set [4], the system named is aging mice. The data set is described as follows: Long term topical treatment of aging mice. In kind it is in vivo, mouse. The note with it: 12 months, from 6 to 18 months of age. The source says: Left mouse is control, whereas right mouse received CBP/catenin (e.g., CBP/β-catenin) antagonists (topical Laura-8 as disclosed herein) for 12 months (from 6 months of age to 18 months of age).

For data set [5], the system named is p300/beta-catenin interaction. The data set is described as follows: Disruption of the p300/beta-catenin interaction. In kind it is biochemical. The source says:
Applicant next mapped the binding domains between CBP and beta-catenin, as well as between p300 and beta-catenin. The C-terminal trans-activating region of beta-catenin (647-781) interacted with the same 1-111 amino acids of both CBP and p300 (23). However, only the interaction between CBP and beta-catenin was disrupted by ICG-001, and not the p300/beta-catenin interaction.
(§1) IQ-1. In addition to ICG-001, a screen of a large chemical library for maintenance of pluripotency in mES cells led to the identification of another compound, termed IQ-1 (FIG. 2b). […] I-Q-1 diminishes the interaction between p300 and beta-catenin thereby increasing the CBP/beta-catenin interaction (24).

Data set [6] deals with PR72/130 subunit of the serine/threonine phosphatase PP2A. The data set is described as follows: Binding to PP2A subunit.
Description: as §1

The subject of data set [7] is p300 at Ser-89. The data set is described as follows: Phosphorylation of p300 at Ser-89. The class given is cell-based.
Description: as §1

Data set [8] relates to murine embryonic stem cells (mESCs). The data set is described as follows: Maintenance of pluripotency of embryonic stem cells in long-term culture. The class given is cell-based, mouse. The note with it: Wnt-dependent.
Description: as §1
Similar results upon selectively antagonizing the p300/catenin interaction have also been obtained with human ES cells (32; Hasegawa, K. et al. accepted Stem Cells Translation Medicine 2011). Blocking the CBP/catenin interaction with ICG-001 can prevent the induction of pluripotency, whereas selectively antagonizing the p300/catenin interaction can enhance reprogramming (33; present applicant unpublished data).

Data set [9] has as its system mitotic cells in the ventricular zone (VZ). The data set is described as follows: Par3 localization assay of symmetric versus asymmetric divisions in the ventricular zone of embryonic brain. In kind it is in vivo, mouse. From the text:
Taking advantage of the ready uptake and penetration through the placental barrier of applicant's small molecule Wnt modulators, applicant designed a series of experiments to investigate symmetric versus asymmetric divisions in the ventricular zone (VZ) of the brain during mouse embryonic development. Timed pregnant mice were topically treated for various time periods (1-3 days) with DMSO (vehicle control), the CBP/catenin antagonist ICG-001 or the p300/catenin antagonist IQ-1. Using a previously described protocol (56), the localization of […] (Par3) and DNA was examined in mitotic cells in the VZ. Par3 distributes symmetrically in cells that divide symmetrically and asymmetrically in cells that divide asymmetrically, whereas the DNA distributes symmetrically between the 2 cells. Using fluorescence microscopy, the percentage of mitotic cells dividing symmetrically or asymmetrically could be quantified. […] Antagonizing the CBP/catenin interaction with ICG-001 had no apparent effect yielding similarly, approximately 21% asymmetric divisions. […] Importantly, this decrease in asymmetric divisions upon treatment with IQ-1 could be rescued back essentially to control levels (i.e. ˜21%) by treatment with a 2-fold excess of ICG-001. Even further divergence in symmetric versus asymmetric divisions could be seen upon prolonged treatments. For example, treatment with IQ-1 (i.e., antagonizing p300/catenin interaction leading to increased usage of CBP) for 3 days (E13.5-16.5) decreased asymmetric divisions compared to control from 31% to 7%. […] This reporter mouse expresses EGFP, driven by the Tis21 promoter, in cells that have undergone neurogenic differentiative divisions.
For example, Bultje et al. (Bultje R Neuron 63, 189-202, 2009) describe an assay to measure asymmetric distributions in the ventricular zone (vz) to evaluate asymmetric divisions during neurogenesis. Essentially this involves treating the animal (either adult or in utero) for a set period of time with compounds (either p.o., s.c., i.v. or topically) with compounds and then sacrificing the animal and examining the Par3 distribution (e.g., via immunohistochemistry) in mitotic cells vs. DNA distribution (e.g., using DAPI staining) Par3 distributes equally among the two daughter cells during symmetric division and unequally (essentially all in one daughter cell) during asymmetric differentiation.

Take `C[C@H]1C2N(C(=O)NCc3ccccc3)CCC(=O)N2[C@@H](Cc2ccc(O)cc2)C(=O)N1Cc1cccc2ccccc12` (some centres unmarked) [Me-ICG-001]: in data set [1], the “expression of aquaporin 1” value is “larger increase” and the expression of elastin result was “larger increase”.

`CCCCCCCCCCCC(=O)Oc1ccc(C[C@H]2C(=O)N(Cc3cccc4ccccc34)C[C@@H]3N(C(=O)NCc4ccccc4)CCC(=O)N32)cc1` [Laura-8]: the hair growth entry in data set [2] (16 days, versus petroleum jelly) is reported as “significant hair growth”. In data set [2] (skin pathology), the new hair-follicle formation entry was “new hair-follicles were formed; also recorded: substantial new hair-follicle formation”. Besides, the skin healing result in [3] is on record as “significantly accelerated”. Besides, the “normal stem cell niche” value in [4] is “does not deplete”.

With `CC(=O)c1ccc(N=NC(C(N)=O)=C2NC(C)(C)Cc3ccccc32)cc1` [IQ-1, reference compound], the p300/beta-catenin interaction result in [5] is recorded as “diminishes”. The “binding to PR72/130 subunit of PP2A” value in data set [6] is recorded as “binds”. In addition, in data set [7], the “phosphorylation of p300 at Ser-89” value is reported as “decreased phosphorylation”. Besides, the “pluripotency of mESCs” value in [8] is “maintains the pluripotency; also recorded: prevents spontaneous differentiation”. The “asymmetric divisions in the VZ” value in [9] (3 days, E13.5-16.5, control 31%) is recorded as 7%; in data set [9] (topical, 1 day, E13.5 to 14.5, DMSO approximately 21%) it was “approximately 9%”. Further, the “number of symmetric differentiative divisions” value in [9] (normal neural stem cells) is reported as “increase”. Besides, in data set [9] (topical or oral administration to pregnant mice), the “number of asymmetric divisions compared to vehicle control” value is listed as “decreases”.
